The first series can be described thus: Log P by HPLC on reversed phase columns (EEC directive 79/831 Annex V.A8). The following applies: LogP method [a]; compounds of formula (I), Table 1.1. Type of series: physicochemical. An outline of the steps: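 Reversed-phase HPLC per EEC 79/831 Annex V.A8, LC-UV with 10→95% acetonitrile linear gradient; eluent [a] 0.1% formic acid (acidic), [b] 0.001 M ammonium acetate (neutral), [c] 0.1% phosphoric acid (acidic). Calibrated with C3–C16 straight-chain alkan-2-ones, linear interpolation of retention times; multiple values joined by "+".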
Turning to `CCOC(=O)C(NC(=O)c1sc(Br)c(C#N)c1Br)C(C)C` (centres unmarked) [1.0410], the LogP is 3.84^[a]. The same measure, in the same setting: next, `COC(=O)C(NC(=O)c1sc(Br)c(Cl)c1F)C1CC1` (centres unmarked) [1.0427]: 3.38^[a]. As for `COC(=O)C(NC(=S)c1sc(Br)c(Br)c1F)C1CC1` (centres unmarked) [1.0496], the LogP was 4.62^[a]. Same read-out and setting: next, `CCOC(=O)C(NC(=O)c1cc(Cl)c(Br)s1)C(C)C` (centres unmarked) [1.0441]: 3.85^[a]; `COC(=O)C1(NC(=O)c2sc(C(F)F)c(Br)c2Br)CCC1` [1.0517]: 3.35^[a]; `CSCCC(NC(=O)c1sc(Br)c(Br)c1F)C(=O)O` (centres unmarked) [1.0473]: 2.75^[a]. Still for that read-out and setting: next, `CCOC(=O)C(CC(C)C)NC(=O)c1sc(Br)c(Cl)c1F` (centres unmarked) [1.0431]: 4.64^[a]; `CCOC(=O)CCNC(=O)c1cc(Cl)c(Br)s1` [1.0462]: 2.77^[a].

The same series, now with this note: method [a].
As to `CCOC(=O)CNC(=O)c1sc(Cl)c(Br)c1Br` [1.0208], the LogP was 3.35^[a].

Regarding `COC(=O)CNC(=O)c1sc(C#N)c(Br)c1C` [1.0241], the LogP is 2.14^[a].

In the case of `O=C(CNC(=O)c1sc(Br)c(Br)c1F)OC1CC1` [1.0856], the LogP was 3.02^[a]. Take `Cc1c(C(=O)NC2(C(=O)O)CC2)sc(Br)c1Cl` [1.0168]: the LogP is 2.20^[a].

As to `COC(=O)CNC(=O)c1sc(Cl)c(Br)c1Br` [1.0207], the LogP is 2.91^[a]. For `O=C(NC(C(=O)OC1CCC1)C1CC1)c1sc(Cl)c(Cl)c1Br` (centres unmarked) [1.0903], the LogP is 5.08^[a]. In the case of `CCOC(=O)CCNC(=O)c1sc(Cl)c(Cl)c1I` [1.0189], the LogP was 3.47^[a].

As to `CCCOC(=O)C1(NC(=O)c2cc(Br)c(Cl)s2)CC1` [1.0601], the LogP is 3.43^[a].

In the case of `COC(=O)C1(NC(=O)c2sc(Cl)c(Br)c2C)CC1` [1.0165], the LogP is 2.80^[a].

Regarding `O=C(NC1(C(=O)O)CC1)c1sc(Cl)c(Br)c1Br` [1.0265], the LogP is 2.41^[a]. On the same count and under the same terms, then `O=C(CNC(=O)c1sc(Br)c(Br)c1F)OC1CCCC1` [1.0862], with 3.84^[a]. For `COC(=O)C(NC(=O)c1sc(Cl)c(Br)c1C#N)C1CC1` (centres unmarked) [1.0610], the LogP is 2.93^[a]. In the case of `O=C(NC(Cc1ccccc1)C(=O)O)c1sc(Br)c(Br)c1F` (centres unmarked) [1.0226], the LogP is 3.22^[a].

For `CCOC(=O)[C@H](CO)NC(=O)c1sc(Br)c(Cl)c1C` [1.0841], the LogP is 2.59^[a].

With `CCOC(=O)CN(OC)C(=O)c1sc(Br)c(Br)c1Cl` [1.0804], the LogP is 3.67^[a].

Regarding `Cc1c(C(=O)NCC(N)=O)sc(C#N)c1Cl` [1.0914], the LogP is 1.34^[a]. Still for that read-out and setting: next, `O=C(NC1(C(=O)OCC2CC2)CCC1)c1sc(Br)c(Br)c1F` [1.0924]: 4.33^[a]. Consider `CC(C)(C)OC(=O)C1(NC(=O)c2sc(Cl)c(Cl)c2Br)CCC1` [1.0891], for which the LogP is 5.28^[a]. As to `COC(=O)C(NC(=O)c1sc(Br)c(Cl)c1Cl)C1CC1` (centres unmarked) [1.0198], the LogP was 3.87^[a]. Consider `COC(=O)C1(NC(=S)c2sc(Br)c(Br)c2I)CC1` [1.0150], for which the LogP is 3.99^[a]. For `O=C(NC1(C(=O)OCc2ccccc2)CCC1)c1sc(Br)c(Br)c1Cl` [1.0909], the LogP was 5.00^[a].

With `C=CCOC(=O)C1(NC(=O)c2sc(Cl)c(Cl)c2C#N)CC1` [1.0913], the LogP is 2.91^[a]. `C#CCOC(=O)CNC(=O)c1sc(Br)c(Br)c1F` [1.0855]: the LogP was 2.87^[a]. The same measure, in the same setting: then `N#CCNC(=O)c1sc(Cl)c(Br)c1C#N` [1.0633], with 2.07^[a]; and `COC(=O)C[C@H](NC(=O)c1sc(Cl)c(Cl)c1Br)C(=O)OC` [1.0548], with 3.33^[a]. As for `COC(=O)C1(NC(=O)c2sc(Cl)c(C#N)c2Br)CC1` [1.0656], the LogP was 2.34^[a]. On the same count and under the same terms, then `CCOC(=O)CCNC(=O)c1sc(Cl)c(Br)c1Br` [1.0209], with 3.57^[a]; and `COC(=O)C(CCSC)NC(=O)c1sc(C#N)c(Cl)c1C` (centres unmarked) [1.0836], with 3.03^[a].

Staying with this series, now noted: method [a]: LC-UV, acidic range, 0.1% formic acid in water and acetonitrile.
With `COC(=O)c1sc(Cl)c(C#N)c1Cl` [II.022], the LogP is 2.82^[a]. On to `Cc1c(C(=O)O)sc(C#N)c1Cl` [II.016], for which the LogP was 1.95^[a]. On to `Cc1c(C(=O)O)sc(I)c1Br` [II.017], for which the LogP is 2.86^[a]. Consider `COC(=O)c1cc(Br)c(C#N)s1` [II.052], for which the LogP was 2.63^[a]. Still for that read-out and setting: next, `O=C(NC1CCOC1=O)c1sc(Cl)c(Cl)c1Br` (centres unmarked) [I.0839]: 2.63^[a]. On the same count and under the same terms, next, `COC(=O)c1sc(C)c(Br)c1F` [II.084]: 3.15^[a]; `CCOC(=O)c1cc(Cl)c(F)s1` [II.062]: 3.63^[a]; `CCOC(=O)c1cc(C#N)c(Cl)s1` [II.090]: 3.01^[a]. Regarding `COC(=O)c1sc(Cl)c(Br)c1Br` [II.026], the LogP is 4.02^[a].

The series is the same for the next values; noted with them: method [a]: LC-UV, acidic range, 0.1% formic acid in water and acetonitrile; listed as 1.0821.
For `Cc1c(C(=O)NC2CCSC2=O)sc(Cl)c1Br` (centres unmarked) [I.0821], the LogP is 3.03^[a].

Staying with this series, now noted: method [a]; compounds of formula (I), Table 1.1.
For the compound `CSCCC(NC(=O)c1cc(Br)c(Cl)s1)C(=O)O` (racemic) [1.0005], the LogP was 2.58^[a].

Turning to `COC(=O)C(NC(=O)c1sc(Cl)c(Br)c1C)C1CC1` (centres unmarked) [1.0119], the LogP was 3.39^[a]. The same measure, in the same setting: then `COC(=O)C1(NC(=O)c2sc(Cl)c(Br)c2C)CSC1` [1.0035], with 3.29^[a]; and `CCOC(=O)C(CC(N)=O)NC(=O)c1sc(Br)c(Br)c1F` (centres unmarked) [1.0048], with 2.17^[a]; and `CCOC(=O)C1(CNC(=O)c2sc(Br)c(Cl)c2C)CC1` [1.0040], with 3.75^[a]. On the same count and under the same terms, then `COC(=O)CC1(NC(=O)c2sc(Cl)c(Br)c2C)CC1` [1.0032], with 3.04^[a]; and `CCOC(=O)CNC(=O)c1sc(Br)c(I)c1C` [1.0087], with 3.09^[a]; and `N#CC1(NC(=O)c2sc(Br)c(Br)c2F)CC1` [1.0115], with 2.64^[a]. On the same count and under the same terms, next, `CCOC(=O)C(CCSC)NC(=O)c1sc(Cl)c(Br)c1C` (centres unmarked) [1.0070]: 3.99^[a]; `CCOC(=O)C1(NC(=O)c2sc(Br)c(Br)c2F)COC1` [1.0046]: 2.77^[a]. As to `COC(=O)C(CC(F)F)NC(=O)c1sc(Br)c(I)c1C` (centres unmarked) [1.0092], the LogP is 3.39^[a]. Same read-out and setting: then `CCOC(=O)CCNC(=O)c1sc(Br)c(Br)c1I` [1.0081], with 3.48^[a]. Still for that read-out and setting: next, `CCOC(=O)C1(NC(=O)c2sc(Br)c(I)c2C)CC1` [1.0089]: 3.25^[a].

Staying with this series, now noted: method marked [a].
In the case of `CCOC(=O)C(CCSC)NC(=O)c1sc(C#N)c(Br)c1Br` (centres unmarked) [1.0732], the LogP was 3.81^[a]. Still for that read-out and setting: next, `CCOC(=O)C1(NC(=O)c2sc(Cl)c(Cl)c2F)CCC1` [1.0347]: 3.70^[a]; `CCOC(=O)CNC(=O)c1sc(Br)c(Br)c1C(F)F` [1.0355]: 3.01^[a]; `COC(=O)CNC(=O)c1sc(C#N)c(Cl)c1Br` [1.0665]: 2.25^[a]. Consider `N#CCNC(=O)c1cc(Br)c(C(F)(F)F)s1` [1.0724], for which the LogP is 2.61^[a].

`COC(=O)C(C)(C)NC(=O)c1sc(F)c(Br)c1Br` [1.0708]: the LogP is 3.38^[a]. As for `Cc1c(C(=O)NC2(C(=O)O)CC2)sc(C#N)c1Cl` [1.0291], the LogP was 1.79^[a]. `COC(=O)C(NC(=O)c1sc(Br)c(Cl)c1C)(C1CC1)C1CC1` [1.0275]: the LogP was 3.94^[a]. The same measure, in the same setting: then `CCOC(=O)C(CCSC)NC(=O)c1cc(C#N)c(Cl)s1` (centres unmarked) [1.0383], with 3.01^[a]; and `COC(=O)CNC(=O)c1sc(C#N)c(Cl)c1C` [1.0302], with 2.03^[a]. Regarding `CCOC(=O)C(NC(=O)c1sc(C#N)c(Cl)c1C)C(=O)OCC` [1.0771], the LogP was 3.20^[a]. Still for that read-out and setting: next, `COC(=O)[C@H](CCSC)NC(=O)c1sc(C#N)c(Cl)c1C` [1.0730]: 2.97^[a].

In the case of `CNC(=O)CNC(=O)c1sc(Br)c(Br)c1F` [1.0737], the LogP was 1.81^[a]. The same measure, in the same setting: then `O=C(NC(C(=O)NC(C(=O)O)C1CC1)C1CC1)c1sc(Cl)c(Cl)c1Br` (centres unmarked) [1.0289], with 2.97^[a]; and `CCOC(=O)C(CC(C)C)NC(=O)c1sc(Cl)c(Cl)c1F` (centres unmarked) [1.0350], with 4.63^[a]; and `CCOC(=O)C1(NC(=O)c2sc(Cl)c(Cl)c2C#N)CCC1` [1.0687], with 3.16^[a].

For the compound `CCOC(=O)C1(NC(=O)c2sc(Cl)c(Cl)c2Br)CSC1` [1.0727], the LogP is 3.95^[a].

For the compound `O=C(NC(C(=O)NC(C(=O)O)C1CC1)C1CC1)c1cc(Br)c(Cl)s1` (centres unmarked) [1.0288], the LogP is 2.49^[a].

Still in this series, the particulars now being: method marker [a] given with each value; Table 1.1, compounds of formula (I).
For the compound `COC(=O)C(C)(C)NC(=O)c1sc(Br)c(Br)c1C(F)F` [1.1061], the LogP was 3.21^[a]. The same measure, in the same setting: next, `N#CCNC(=O)c1sc(C#N)c(Br)c1Br` [1.1058]: 2.12^[a]; `CCCOC(=O)CNC(=O)c1sc(Br)c(Br)c1Cl` [1.0983]: 3.76^[a]. For `CCCCOC(=O)CNC(=O)c1sc(C#N)c(Br)c1C` [1.0972], the LogP is 3.23^[a]. As for `CCOC(=O)CNC(=S)c1sc(Br)c(Br)c1F` [1.0999], the LogP is 4.23^[a]. For `COC(=O)C(C)(Cc1ccccc1)NC(=O)c1sc(Br)c(Br)c1Cl` (racemic) [1.0941], the LogP is 5.12^[a]. Still for that read-out and setting: then `O=C(O)C(NC(=S)c1sc(Br)c(Br)c1F)C1CC1` (centres unmarked) [1.1029], with 3.45^[a]. Take `N#CCOC(=O)CNC(=O)c1sc(Br)c(Br)c1F` [1.1008]: the LogP was 2.67^[a].

Still in this series, the particulars now being: reversed phase HPLC columns, value in preparation example, method not marked.
For the compound `CCOC(=O)CNC(=O)c1sc(C#N)c(Br)c1C` [I.0024, ethyl N-[(4-bromo-5-cyano-3-methyl-2-thienyl)carbonyl]glycinate], the chromatographic logP (as a rule, a lipophilicity value derived from retention on a column) was 2.4.

The values above are taken from patent US12642270B2, “Substituted thiophene carboxamides, thiophene carboxylic acids and derivatives thereof” (Bayer Aktiengesellschaft, priority 2019, dated 2026).
